Experimental data from ChEMBL document CHEMBL4834492, “Targeting the KRAS G12D Mutant as Potential Therapy in Cancer” (ACS Med Chem Lett, 2021).

tested on: A-427; assay: Antiproliferative activity against human A427 cells expressing KRAS G12D mutant assessed as inhibition of cell growth measured after 3 days by CellTiter-Glo assay; type: functional, cell-based; details: A-427, 72 h

| Compound | IC50 |
| --- | --- |
| Oc1cc(N2CCc3c(nc(OCC4(CN5CCOCC5)CC4)nc3N3CC4CCC(C3)N4)C2)c2c(I)cccc2c1 | 350 nM |
| CN(C)CC1(COc2nc3c(c(N4CC5CCC(C4)N5)n2)CCN(c2cc(O)cc4cccc(I)c24)C3)CC1 | 580 nM |
| Oc1cc(N2CCc3c(nc(OCC4(CN5CC[C@@H](F)C5)CC4)nc3N3CC4CCC(C3)N4)C2)c2c(I)cccc2c1 | 470 nM |
| CN1C[C@H](F)C[C@H]1COc1nc2c(c(N3CC4CCC(C3)N4)n1)CCN(c1cc(O)cc3cccc(Br)c13)C2 | 650 nM |
| Oc1cc(N2CCc3c(nc(OCC4(CN5CC[C@@H](F)C5)CC4)nc3N3CC4CCC(C3)N4)C2)c2c(Br)cccc2c1 | 540 nM |
| Cc1cccc2cc(O)cc(N3CCc4c(nc(OCC5(CN6CCOCC6)CC5)nc4N4CC5CCC(C4)N5)C3)c12 | 550 nM |
| CN(C)CC1(COc2nc3c(c(N4CC5CCC(C4)N5)n2)CCN(c2cc(O)cc4cccc(Br)c24)C3)CC1(F)F (centres undefined) | 540 nM |
| Oc1cc(N2CCc3c(nc(OCC4(CN5CCOCC5)CC4)nc3N3CC4CCC(C3)N4)C2)c2c(Br)cccc2c1 | 590 nM |

target: GTPase KRas (Homo sapiens, UniProt P01116, G12D); assay: Inhibition of recombinant his-tagged KRAS G12D mutant (unknown origin) expressed in Escherichia coli BL21(DE3) assessed as inhibition of GDP-GTP exchange rate in presence of recombinant SOS1/GMPPNP incubated for 1 hr by BODIPY fluorescence assay; details: not given
Sequence (P01116 whole entry G12D): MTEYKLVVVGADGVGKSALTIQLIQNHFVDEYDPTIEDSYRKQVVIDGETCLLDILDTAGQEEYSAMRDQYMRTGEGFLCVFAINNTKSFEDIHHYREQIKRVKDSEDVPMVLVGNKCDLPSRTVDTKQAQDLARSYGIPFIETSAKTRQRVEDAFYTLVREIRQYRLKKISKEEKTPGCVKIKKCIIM

| Compound | IC50 |
| --- | --- |
| Oc1cc(N2CCc3c(nc(OCC4(CN5CCOCC5)CC4)nc3N3CC4CCC(C3)N4)C2)c2c(Br)cccc2c1 | 1.2 nM |
